Reference: US8084453B2, “Alkyl substituted indoloquinoxalines” (Oxypharma AB, priority 2004, dated 2011)

Assays:
[1] = test system: collagen-induced arthritis (CIA) model; conditions: prior art patents; cited from earlier work
EAE model = conditions: prior art patents; cited from earlier work
[2] = test system: mAB/LPS-induced arthritic mice; test: mAb/LPS-induced arthritis in mice, hind paw thickness; type: in vivo; conditions: for Mean group values of hind paw thickness, day 0: day 0 (base-line); for Mean group values of hind paw thickness, day 0 / Mean group values of hind paw thickness, day 7 / Mean group values of hind paw thickness, day 9 / Mean group values of hind paw thickness, day 11: once daily (day 0-5) repeated subcutaneous administration; for Hind paw thickness vs vehicle control (corn oil): comparison with vehicle control (corn oil)
From the text: Collagen-induced arthritis (CIA) in mice is widely used as an experimental model for rheumatoid arthritis (RA) in humans. CIA is mediated by autoantibodies which bind to a particular region of type II collagen, such as CB11 (CNBr-digested fragment of type II collagen).
Antibody-mediated CIA can be induced by iv injection of a combination of 4 different monoclonal antibodies (Arthrogen-CIA® mAb) generated by Arthrogen-CIA® mouse B-hybridoma cell lines.
Three of the mAbs recognize autoantigenic epitopes clustered within an 84 amino acid residue fragment, LyC2 (the smallest arthritogenic fragment of type II collagen) of CB11 and the fourth mAb reacts with LyC1 (FIG. 1). Importantly, all 4 mAbs recognize the conserved epitopes shared by various species of type II collagen and crossreact with homologous and heterologous type II collagen.
A cocktail of 4 monoclonal antibodies are used. These arthritogenic mAbs alone or in combination with bacterial LPS can induce severe arthritis within days instead of weeks (classic CIA model).
(A) A cocktail of 4 monoclonal antibodies to type II collagen (2 mg) is injected intravenously on day 0 followed by an intraperitoneal injection of LPS (50 μg) on day 3. Arthritis will develop on day 4 and reach its peak on day 7-8. The therapeutic effects of test compounds will be determined on day 7. […] formation and bone degradation will be more significant on day 14 and day 21 (not shown). (B) Authentic collagen-induced arthritis.
Measurement of arthritis. Hind paw thickness, left and right of each animal (9 animals in each group) was measured in mm on study days 0 (base-line), 7, 9 and 11 using a Mitutoyo Electronic Digital Caliper. […] Dexamethasone is a cortisone which suppresses inflammation and normal immune response, and is used systemically and locally to treat inflammatory disorders. Patients are for safety reasons treated with short courses of cortisones to bring the inflammation under control in the window between starting the DMARD or DMARD combination and the likely response time.
FIG. 3. Mean group values (mm) of hind paw thickness measured throughout the entire 11-day observation period in the mAB/LPS-induced arthritic mice following once daily (day 0-5) repeated subcutaneous administration of B-220 analogues, Dexamethasone (positive control) or corn oil (negative control).

Row | melting point [°C] | SMILES | treating RA in the collagen-induced arthritis (CIA) model [1] | treating MS in the EAE model (EAE model) | Mean group values of hind paw thickness, day 0 [2] [mm] | Mean group values of hind paw thickness, day 7 [2] [mm] | Mean group values of hind paw thickness, day 9 [2] [mm] | Mean group values of hind paw thickness, day 11 [2] [mm] | Hind paw thickness vs vehicle control (corn oil) [2]
1 |  | Cc1cc2nc3c4ccccc4n(CCN(C)C)c3nc2cc1C [Compound B-220, 2,3-dimethyl-6-(N,N-dimethylaminoethyl)-6H-indolo(2,3-b)quinoxaline, reference compound] | promising compound | promising compound | 2.2 | 3.1 | 3.0 | 2.8 | 
2 | 316 to 319 | Cc1cc2nc3c4cc(F)ccc4n(CC(N)=O)c3nc2cc1C [Compound C, 2,3-Dimethyl-9-fluoro-indolo[2,3-b]quinoxaline-6-yl-acetamide] |  |  | 2.2 | 3.1 | 3.0 | 2.8 | 
3 |  | Cc1cc2nc3c4cc(Cl)ccc4n(CC(=O)NCCN(C)C)c3nc2cc1C [Compound E, 9-Chloro-2,3-dimethyl-6-(N,N-dimethylaminoethylamino-2-oxoethyl)-6H-indolo-[2,3-b]quinoxaline] |  |  | 2.2 | 2.3 | 2.3 | 2.3 | highly significant lower
4 | 269 to 271 | Cc1cc2nc3c4cc(F)ccc4n(CC(=O)NCCN)c3nc2cc1C [Compound H, 2,3-Dimethyl-6-(aminoethylamino-2-oxoethyl)-9-fluoro-6H-indolo[2,3-b]quinoxaline] |  |  | 2.2 | 2.5 | 2.5 | 2.5 | highly significant lower
5 | 331 to 332 | Cc1cc2nc3c4cc(Cl)ccc4n(CC(=O)O)c3nc2cc1C [Compound K, 2,3-Dimethyl-9-chloro-indolo[2,3-b]quinoxaline-6-yl acetic acid] |  |  |  |  |  |  | 
6 | 317 to 318 | Cc1cc2nc3c4cc(F)ccc4n(CC(=O)O)c3nc2cc1C [Compound L, 2,3-dimethyl-9-fluoro-indolo[2,3-b]quinoxaline-6-yl-acetic acid] |  |  |  |  |  |  | 
7 |  | C[C@@H]1C[C@H]2[C@@H]3CCC4=CC(=O)C=C[C@]4(C)[C@@]3(F)[C@@H](O)C[C@]2(C)[C@@]1(O)C(=O)CO [Dexamethasone, reference compound] |  |  | 2.2 | 2.3 | 2.3 | 2.3 | 
